Measured values as given in paper PMC12591170, “Glabridin‐Gold(I) Complex as a Novel Immunomodulatory Agent Targeting TrxR and MAPK Pathways for Synergistic Enhancement of Antitumor Immunity” (Advanced Science, 2025).

Key:
[1] = Stability analysis by 1H NMR; assay type: physicochemical
Description: 5 mM of complex 6d was incubated with DMSO‐d6 or the mixed solution (DMSO‐d6 /D2O = 9:1) or the same mixed solution with 5 mM of GSH for different times (0 – 72 h), and the ^1H NMR spectra were acquired. The stability of AF was determined by the same method.

TrxR [2] = target: T1, TrxR (Homo sapiens, UniProt Q16881); assay: Intracellular TrxR activity (kit, probe) and TrxR expression in HepG2; assay type: cell-based
T1 construct: endogenous in cells; host or cells: HepG2
T1 sequence (Q16881 151-649 limits assumed): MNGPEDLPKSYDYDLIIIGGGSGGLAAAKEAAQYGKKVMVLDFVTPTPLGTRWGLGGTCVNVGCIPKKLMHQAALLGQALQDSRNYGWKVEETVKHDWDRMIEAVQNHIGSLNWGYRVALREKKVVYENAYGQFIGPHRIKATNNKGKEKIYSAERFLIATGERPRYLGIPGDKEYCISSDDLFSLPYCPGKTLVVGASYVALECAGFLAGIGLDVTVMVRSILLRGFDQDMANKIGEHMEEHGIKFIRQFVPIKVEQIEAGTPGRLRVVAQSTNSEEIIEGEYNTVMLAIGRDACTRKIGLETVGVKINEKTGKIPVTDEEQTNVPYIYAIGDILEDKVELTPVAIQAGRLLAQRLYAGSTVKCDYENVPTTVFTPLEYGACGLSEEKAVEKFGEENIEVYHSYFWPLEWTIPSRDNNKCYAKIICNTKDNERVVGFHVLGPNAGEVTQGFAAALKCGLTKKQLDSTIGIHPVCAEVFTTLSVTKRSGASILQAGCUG
Description: 1 × 10^6 HepG2 cells were cultured in 6 cm culture dishes, and treated with DMF (0.1%), AF (4 µM) or different concentrations of 6d (2, 4, 8 µM) after cell adhesion. 24 h later, the intracellular TrxR activity was analyzed by the TrxR activity detection kit.
In addition, intracellular TrxR activity was detected by TrxR probe. 5 × 10^4 HepG2 cells were seeded in 12‐well plate. After 24 h, the complete medium was removed, and the each well was washed twice by phosphate buffer saline (PBS). 10 µM TrxR probe (dissolved in PBS) was added for 1 h incubation. Then, the probe was removed, and washing twice was performed by PBS. The fluorescence microscopy was applied to capture the cell images under the channel of FITC.
HepG2 cells were incubated in 6 cm culture dishes and treated with different complexes. The treated cells were lysed with lysis buffer (RIPA:PMSF:phosphatase inhibitor:protease inhibitor = 100:1:1:1). The lysed cells were further broken by sonication, and proteins were isolated by centrifugation. The protein concentrations were detected by BCA assay. 10% SDS PAGE gel was usually applied to separate the different kDa of proteins, and more than 200 kDa of proteins were separated using 8% SDS PAGE gel. After seperation, proteins were transferred onto polyvinylidene difluoride (PVDF) membranes. […] The target proteins’ bands were detected by the enhanced chemiluminescence (ECL) procedure.

TrxR [3] = target: T1, TrxR; assay: CETSA and ITDR assay, TrxR; assay type: binding; conditions: HepG2 proteins, 8 µM, ITDR at 78 °C
Description: The treated HepG2 cells in 10 cm culture dishes were collected and washed with PBS. The collected cells were repeatedly frozen and thawed for 3 times by liquid nitrogen and 37 °C water bath. Then, proteins were isolated by centrifugation. The isolated proteins were divided into different tubes and incubated with same concentration of 6d at different temperature. Western blot was applied for CETSA by analyzing the band intensity of different temperature groups.
The temperature, which results in significant band differences between 6d and control group, was selected for ITDR assay. The isolated proteins were divided into different tubes and incubated with different concentration of 6d at same temperature. The binding between 6d and target protein was assessed by analyzing the band intensity of different concentration groups.

CCn1ccn(CCCCCOc2ccc([C@@H]3COc4c(ccc5c4C=CC(C)(C)O5)C3)c(OCCCCCn3ccn(CC)[c]3=[Au][Br])c2)[c]1=[Au][Br] [6d]
time after which 1H NMR spectra began to change / showed new peaks ([1]; 5 mM complex, DMSO-d6/D2O 9:1 containing GSH (5 mM)): 12 h
stability by 1H NMR ([1]; DMSO-d6, over 72 h): remained stable
stability by 1H NMR ([1]; DMSO-d6/D2O (v1/v2 = 9:1), over 72 h): remained stable
TrxR expression level (western blot) (TrxR [2]; HepG2, 24 h): did not downregulate TrxR expression levels
intracellular TrxR activity (TrxR [2]; HepG2, 24 h, 2, 4, 8 µM, TrxR probe and activity assay kit): suppressed TrxR activity
binding to TrxR (CETSA, ITDR) (TrxR [3]): significant binding
